According to patent US8901118B2, “Compounds and methods for kinase modulation, and indications therefor” (Plexxikon Inc., priority 2010, dated 2014):

The compounds below were run against T1, BCR-NTRK1 BaF3 cells (Homo sapiens, UniProt P04629) (assay: BaF3 BCR-NTRK1 cell proliferation assay (ATPlite)). Settings: read-out: Inhibition of Cell Proliferation IC50, BCR/BaF3 TrkA.
T1 construct: fused on or other part: P11274 (Breakpoint cluster region protein)
Type: cell-based
Procedure: Compounds are assessed in a variety of cell based assays. For example BaF3 cells engineered with any of BCR-FMS, BCR-KIT, BCR-FLT3, BCR-NTRK1, BCR-NTRK2, and BCR-NTRK3, are used in cell proliferation assays to assess inhibitory activity of Fms, Kit, Flt-3, TrkA, TrkB, and TrkC, respectively. An MV-4-11 (leukemia) cell proliferation assay is used to assess inhibitory activity in Flt-3, and SKNSH (human neuroblastoma) cell proliferation assay is used to assess efficacy of Fms/Trk inhibitors. Additional cells may be assayed similarly to assess the efficacy of Fms/Trk inhibitors, such as MiaPaCa (human pancreatic cancer) and Capan-1 (human pancreatic carcinoma) cells. Reagent and assay conditions are as follows: • BaF3 cells: • Maintained in RPMI containing 10% FBS, 1% PenStrep, 1% NEAA, and 1% L-Glutamine, supplemented with 1 mg/mL G418 and 5% WEHI-CM (or recombinant murine IL-3). • Confluent cells are split 1:50 to 1:100 every 3-4 days. • MV-4-11 cells: • Maintained in Iscove's Modified Dulbecco's Medium containing 10% FBS. • Confluent cells are split 1:4 every 3-4 days. • SKNSH cells: RPMI containing 10% FBS. On day 1, cells are counted, then centrifuged in a conical tube for 5 minutes at 1000 rpm. The supernatant is removed and cells are re-suspended as follows: • BaF3: resuspend in growth media +1 mg/mL G418 (without WEHFIL-3) to 2×10^5 cells/mL. • MV-4-11: resuspend in growth media to 5×10^5 cells/mL. • SKNSH: resuspend in growth media to 2×10^4 cells/mL. The cells are plated (50 μL, 150 μL for SKNSH cells) in each well of a 96-well dish (Corning 3610) and incubated at 37° C. in 5% CO2 overnight, cells plated to a final concentration of cells as follows: • BaF3: 10,000 cells per well. • MV-4-11: 25,000 cells per well. • SKNSH: 3,000 cells per well. On day 2, compound at a maximum concentration of 5 mM is serially diluted 1:3 for a total of 8 point titration with DMSO as a control. A 1 μL aliquot of each dilution point is added to 249 μL growth media and 50 μL is added to a well containing cells, providing 10 μM compound for the maximum concentration point. The cells are incubated for 3 days at 37° C. in 5% CO2. For SKNSH cells, a 0.75 μL aliquot of appropriate dilution in DMSO is added to 150 μL of cells. On day 5, ATPlite 1 step Luminescence Assay System (Perkin Elmer #6016739) is brought to room temperature along with the cell cultures. ATPlite is added to each well as follows: • BaF3: 25 μL per well. • MV-4-11: 40 μL per well. • SKNSH: 20 μL per well. The cells are incubated at room temperature for 10 minutes, then luminescence is read on Safire reader. The measured luminescence correlates directly with cell number, such that the reading as a function of compound concentration is used to determine the IC50 value.
It is understood that the results of these assays may vary as assay conditions are varied. Inhibition levels determined under the conditions described herein represent a relative activity for the compounds tested under the specific conditions employed. The cell based assays are likely to show variability due to the complexity of the system and the sensitivity thereof to any changes in the assay conditions. […] Results for compounds that are tested and show substantially no inhibition below the highest tested concentration are represented as “-” in the tables below. In some instances, the compounds were not tested in all of the assays, or assay results were not valid, as indicated by NA in the tables below.

T1 sequence (P04629 510-781): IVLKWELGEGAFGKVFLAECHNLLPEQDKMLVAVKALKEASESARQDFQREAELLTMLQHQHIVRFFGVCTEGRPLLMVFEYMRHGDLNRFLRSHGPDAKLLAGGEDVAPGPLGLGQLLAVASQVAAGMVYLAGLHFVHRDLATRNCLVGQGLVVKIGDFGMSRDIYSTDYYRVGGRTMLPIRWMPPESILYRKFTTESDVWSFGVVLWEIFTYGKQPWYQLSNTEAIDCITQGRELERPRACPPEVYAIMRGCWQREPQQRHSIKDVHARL

SMILES	IC50 [nM]
CCc1ccc(Nc2ccc(C(=O)c3c[nH]c4ncnc(NC(C)C)c34)c(F)n2)cn1 [Compound P-4117, [6-[(6-ethyl-3-pyridyl)amino]-2-fluoro-3-pyridyl]-[4-(isopropylamino)-7H-pyrrolo[2,3-d]pyrimidin-5-yl]methanone]	< 10
CCc1ccc(Nc2ccc(C(=O)c3c[nH]c4ncnc(NCC(C)(C)O)c34)c(F)n2)cn1 [Compound P-4064, [6-[(6-ethyl-3-pyridyl)amino]-2-fluoro-3-pyridyl]-[4-[(2-hydroxy-2-methyl-propyl)amino]-7H-pyrrolo[2,3-d]pyrimidin-5-yl]methanone]	< 100
COc1ccc(Nc2ccc(C(=O)c3c[nH]c4ncnc(NC5CCCCC5)c34)c(F)n2)cn1 [Compound P-4082, [4-(cyclohexylamino)-7H-pyrrolo[2,3-d]pyrimidin-5-yl]-[2-fluoro-6-[(6-methoxy-3-pyridyl)amino]-3-pyridyl]methanone]	< 10
CCc1ccc(Nc2ccc(C(=O)c3c[nH]c4ncnc(NCC5CC5)c34)c(F)n2)cn1 [Compound P-4118, [4-(cyclopropylmethylamino)-7H-pyrrolo[2,3-d]pyrimidin-5-yl]-[6-[(6-ethyl-3-pyridyl)amino]-2-fluoro-3-pyridyl]methanone]	< 10
CCc1ccc(Nc2ccc(C(=O)c3c[nH]c4ncnc(Nc5ccc(C)nc5)c34)c(F)n2)cn1 [Compound P-4086, [6-[(6-ethyl-3-pyridyl)amino]-2-fluoro-3-pyridyl]-[4-[(6-methyl-3-pyridyl)amino]-7H-pyrrolo[2,3-d]pyrimidin-5-yl]methanone]	< 10
COc1ccc(Nc2ccc(C(=O)c3c[nH]c4ncnc(N5CCOCC5)c34)c(F)n2)cn1 [Compound P-4070, [2-fluoro-6-[(6-methoxy-3-pyridyl)amino]-3-pyridyl]-(4-morpholino-7H-pyrrolo[2,3-d]pyrimidin-5-yl)methanone]	> 1000
Clc1cnc2[nH]cc(Cc3cnc(Nc4ccccc4Cl)nc3)c2c1 [Compound P-3015, (2-Chloro-phenyl)-[5-(5-chloro-1H-pyrrolo[2,3-b]pyridin-3-ylmethyl)-pyrimidin-2-yl]-amine]	> 10000
CCC(CC)Nc1ncnc2[nH]cc(C(=O)c3ccc(Nc4ccc(OC)nc4)nc3F)c12 [Compound P-4077, [4-(1-ethylpropylamino)-7H-pyrrolo[2,3-d]pyrimidin-5-yl]-[2-fluoro-6-[(6-methoxy-3-pyridyl)amino]-3-pyridyl]methanone]	< 10
CCNc1ncnc2[nH]cc(C(=O)c3ccc(Nc4ccc(OC)nc4)nc3F)c12 [Compound P-4081, [4-(ethylamino)-7H-pyrrolo[2,3-d]pyrimidin-5-yl]-[2-fluoro-6-[(6-methoxy-3-pyridyl)amino]-3-pyridyl]methanone]	< 10
CCCCNc1ncnc2[nH]cc(C(=O)c3ccc(Nc4ccc(OC)nc4)nc3F)c12 [Compound P-4080, [4-(butylamino)-7H-pyrrolo[2,3-d]pyrimidin-5-yl]-[2-fluoro-6-[(6-methoxy-3-pyridyl)amino]-3-pyridyl]methanone]	< 10
COc1ccc(Nc2ccc(C(=O)c3c[nH]c4ncnc(NC(C)C)c34)c(F)n2)cn1 [Compound P-4066, [2-fluoro-6-[(6-methoxy-3-pyridyl)amino]-3-pyridyl]-[4-(isopropylamino)-7H-pyrrolo[2,3-d]pyrimidin-5-yl]methanone]	< 10
Clc1ccc(Nc2ncc(Cc3c[nH]c4ncc(Cl)cc34)cn2)cc1 [Compound P-3011, (4-Chloro-phenyl)-[5-(5-chloro-1H-pyrrolo[2,3-b]pyridin-3-ylmethyl)-pyrimidin-2-yl]-amine]	< 1000
CCc1ccc(Nc2ccc(C(=O)c3c[nH]c4ncnc(NCC(C)C)c34)c(F)n2)cn1 [Compound P-4121, [6-[(6-ethyl-3-pyridyl)amino]-2-fluoro-3-pyridyl]-[4-(isobutylamino)-7H-pyrrolo[2,3-d]pyrimidin-5-yl]methanone]	< 10
